Data taken from patent publication US20250034264A1, “REGULATING T CELL IMMUNE RESPONSE THROUGH IGF-I RECEPTOR (IGF-1R)” (The Regents of the University of Michigan, priority 2021, published 2025).

How the values were obtained:
Assay type in all cases: cell-based, human
[1] = system: fibrocytes; test: mRNA stability with DRB; conditions: 50 μg/mL, up to 12 hrs
Description: FIGS. 5A-5C show the effects of teprotumumab on basal and bTSH-induced gene promoter activities in GD-OF compared to fibrocytes, gene transcription and mRNA stabilities of MHC II, CD80, CD86, PD-L1 in fibrocytes. Confluent GD-OF and fibrocyte monolayers were treated with human Isotype IgG (5 μg/ml) or teprotumumab (50 μg/mL) for 3 d and transfected with a target gene promoter fragment (MHC-2, CD80, CD86, PD-L1, or negative control clone PG04). Following a 3-4 d incubation, they were treated without or with bTSH (5 mU/mL) for 2 h. Monolayers were rinsed, processed, and analyzed using the Secrete-Pair Dual Luminescence Assay Kit for promoter activity according to manufacturer's instructions (FIG. 5A). Values were normalized to internal controls. Fibrocyte monolayers were cross-linked with 16% formaldehyde isolated chromatin fragment and immunoprecipitated with anti-human HLA-DPB1, anti-CD80, anti-CD86, or anti-PD-L1 using the Pierce™ Agarose Chip Kit. Isolated DNA was subjected to RT-PCR using EpiTect ChIP qPCR Primer Assay (Qiagen) for each target (FIG. 5B). Each datum point represents values from three independent determinations from one of three experiments performed. *, p<0.05; ** p<0.01; and ***p<0.001. Fibrocyte cultures were pretreated with bTSH for 6 h. […] RNA was extracted, reverse transcribed, and subjected to real-time quantitative PCR for each target (FIG. 5C). […]

[2] = system: purified, isolated cultured CD3+CD4+ T cells; test: IL-17A and INFγ in purified, isolated cultured T cells (flow cytometry)
Description: Invariably, a small population of tightly adherent T cells were found in the fibrocyte cultures, consistent with the previous findings. Culture viability was routinely verified to be >90%. CD4^+ T cells were enriched using the CD4 isolation cocktail (Cat #0.130-096-533, Miltenyi Biotec, San Diego, CA) followed by negative selection using a magnetic column (Cat #0.130-042-401) according to manufacturer's protocol. Fibrocytes and isolated T cells were cultured and remained untreated or were incubated with human IgG isotype control (5 μg/ml) or teprotumumab (50 μg/mL) for 7 to 9 days. Single cell suspensions were stained with anti-human CD4, CD3, CD34, MHC-2, CD80, CD86, and PD-L1 (BD Biosciences) for 30 min, rinsed and fixed with CytoPerm/CytoFix (BD). They were then stained with anti-human INFγ and IL-17A for 20 min, rinsed, and subjected to the flow cytometry analysis. Gated CD34^+CXCR4^+ fibrocytes and CD4^+CD3^+ T cells were analyzed using quadrant settings based on negative isotype staining.
In vitro studies of CD34^+ fibrocytes and T cells PBMC and GD-OF monolayers were treated in vitro with human IgG isotype control (5 μg/ml), teprotumumab (50 μg/mL), H7 (5 μg/mL), linsitinib (1 μM), bTSH (5 mIU/mL), M22 (1 μg/mL), or IGF-1 (10 nM) for the intervals indicted in the figure legends in a 37° C., 5% CO2, humidified incubator until confluent. Brefeldin A (0.66 μl/ml), (Golgi Stop™, BD Biosciences), phorbol 12-myristate 13-acetate (PMA) (50 ng/ml) and ionomycin (1 μg/mL) were added for 5 h. Cells were rinsed with flow cytometry buffer (1×PBS, 0.5% BSA, 0.1% sodium azide) and stained with the relevant monoclonal antibodies.

[3] = system: GD-OF; test: HAS1 and HAS2 mRNA, real-time PCR; conditions: teprotumumab 50 μg/ml or linsitinib 1 μM, 7-9 d
Description: (§1) FIGS. 13A-13B are graphs showing the effect of teprotumumab on bTSH induced hyaluronan (HA) production in GD-OF (FIG. 13A) and fibrocytes (FIG. 13B). GD-OF were treated with or without teprotumumab (50 μg/ml) or human Isotype IgG (5 μg/ml) for 7-9 d and stimulated with bTSH (5 mIU/mL) for graded intervals indicated along the abscissa for 0 to 96h. Media were collected and subjected to HA ELISA. Values were normalized to respective cell layer protein levels and expressed as the mean±SD of three independent determinations. Experiments were repeated three times. FIGS. 13C-13F are graphs showing the divergent pattern of hyaluronan synthase (HAS) isoenzyme induction by bTSH in fibrocytes versus GD-OF and effects of teprotumumab (FIGS. 13C and 13D) and linsitinib (FIGS. 13E and 13F). Confluent monolayers of GD-OF and fibrocytes remained untreated or received teprotumumab (50 μg/ml) or linsitinib (1 μM) and human Isotype IgG for 7-9 d. Some cultures were treated with bTSH (5 mIU/mL) for 6h. Cellular RNA was harvested mRNA was reverse transcribed, and cDNA subjected to quantitative real-time PCR for HAS1 and HAS2. Values were normalized to their respective GAPDH levels and are expressed as the mean±SD of three independent determinations. Experiments were repeated three times. *, P<0.05; **, p<0.01; ***. P<0.001.
(§2) Real-time PCR Confluent fibrocyte and GD-OF cultures were incubated with bTSH (5 mIU/mL), teprotumumab (50 μg/mL) or linsitinib (1 μM) for the time intervals indicated, washed with PBS and RNA was extracted with the Aurum Total RNA Mini Kit (cat. #732-6820, Bio-Rad, Hercules, CA). Cellular RNA (2 μg) was reverse transcribed using QuantiTect Reverse Transcription kit (cat. #205314, Qiagen (Germantown, MD) and real-time PCR was performed using an Applied Biosystems instrument with QuantiTect SYBR Green PCR kit (cat. no. 204143; Qiagen, Frederick, MD). Primer sequences were as follows.

[4] = system: fibrocytes; test: HAS1 and HAS2 mRNA, real-time PCR; conditions: teprotumumab 50 μg/ml or linsitinib 1 μM, 7-9 d
Description: as §1, §2

teprotumumab
stabilities of mRNA encoding MHC II, CD80, CD86, PD-L1 [1]: accelerated their decline
INFγ MFI ([2]; 50 μg/mL, 9 d, control 10.23±0.99): 10.32±0.89
IL-17A MFI ([2]; 50 μg/mL, 9 d, control isotype MFI 12.69±0.19): 12.69±0.31
effect on cytokine (IL-17A, INFγ) expression levels ([2]; purified T cells without fibrocytes): no such effects
HAS2 expression, single agent or in combination with bTSH [3]: induced
basal and bTSH-provoked expression of HAS1 [3]: inhibited
HAS2 expression, single agent or in combination with bTSH [4]: induced
basal and bTSH-provoked expression of HAS1 [4]: inhibited
